Test results taken from ChEMBL document CHEMBL1134625 (J Med Chem, 2001).

Assays:
[1] = biological target: T1, Adrenergic receptor alpha-1 (Homo sapiens, UniProt P35348+P25100+P35368); assay type: protein assay
T1 sequence (P35348 whole entry): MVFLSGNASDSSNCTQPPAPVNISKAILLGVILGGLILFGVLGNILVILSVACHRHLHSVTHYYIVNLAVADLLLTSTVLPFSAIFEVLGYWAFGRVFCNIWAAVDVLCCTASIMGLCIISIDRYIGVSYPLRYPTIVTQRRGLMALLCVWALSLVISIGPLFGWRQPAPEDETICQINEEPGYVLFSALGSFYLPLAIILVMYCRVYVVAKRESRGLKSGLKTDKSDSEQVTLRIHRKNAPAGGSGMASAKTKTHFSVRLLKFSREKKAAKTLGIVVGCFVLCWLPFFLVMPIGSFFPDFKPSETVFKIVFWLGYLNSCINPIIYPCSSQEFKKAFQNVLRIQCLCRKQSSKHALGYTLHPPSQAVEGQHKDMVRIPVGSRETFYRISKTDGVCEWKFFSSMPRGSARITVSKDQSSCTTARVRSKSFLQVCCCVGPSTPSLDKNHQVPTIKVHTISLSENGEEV
T1 sequence (P25100 whole entry): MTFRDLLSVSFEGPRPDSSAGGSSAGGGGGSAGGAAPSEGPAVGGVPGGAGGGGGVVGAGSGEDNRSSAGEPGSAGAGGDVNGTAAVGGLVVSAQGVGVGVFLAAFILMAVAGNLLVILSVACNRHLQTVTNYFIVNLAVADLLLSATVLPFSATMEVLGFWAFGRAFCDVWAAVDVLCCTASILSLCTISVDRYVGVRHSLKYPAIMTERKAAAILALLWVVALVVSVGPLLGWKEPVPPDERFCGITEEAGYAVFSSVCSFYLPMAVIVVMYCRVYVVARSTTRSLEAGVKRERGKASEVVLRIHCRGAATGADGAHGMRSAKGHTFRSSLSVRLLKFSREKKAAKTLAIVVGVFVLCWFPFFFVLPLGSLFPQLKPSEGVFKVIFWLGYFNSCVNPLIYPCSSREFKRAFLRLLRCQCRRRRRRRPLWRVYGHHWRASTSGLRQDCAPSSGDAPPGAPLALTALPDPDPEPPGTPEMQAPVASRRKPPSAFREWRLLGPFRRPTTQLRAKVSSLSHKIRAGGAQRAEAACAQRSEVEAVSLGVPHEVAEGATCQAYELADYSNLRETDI
T1 sequence (P35368 whole entry): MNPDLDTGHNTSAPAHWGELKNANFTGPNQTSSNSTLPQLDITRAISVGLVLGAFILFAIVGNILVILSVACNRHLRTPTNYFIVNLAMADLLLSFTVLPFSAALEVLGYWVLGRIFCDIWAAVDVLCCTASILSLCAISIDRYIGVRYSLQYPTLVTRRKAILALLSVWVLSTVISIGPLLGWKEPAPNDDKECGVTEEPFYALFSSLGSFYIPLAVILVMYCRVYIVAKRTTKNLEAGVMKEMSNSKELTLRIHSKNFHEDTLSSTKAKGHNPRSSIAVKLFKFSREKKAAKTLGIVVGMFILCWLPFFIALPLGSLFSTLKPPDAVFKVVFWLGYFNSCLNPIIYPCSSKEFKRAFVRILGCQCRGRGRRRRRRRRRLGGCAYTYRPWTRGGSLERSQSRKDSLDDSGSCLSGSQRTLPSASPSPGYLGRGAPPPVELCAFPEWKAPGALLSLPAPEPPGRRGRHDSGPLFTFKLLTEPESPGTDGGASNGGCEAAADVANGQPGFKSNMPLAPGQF

D(4) dopamine receptor = biological target: T2, D(4) dopamine receptor (Homo sapiens, UniProt P21917)
T2 sequence (P21917 whole entry): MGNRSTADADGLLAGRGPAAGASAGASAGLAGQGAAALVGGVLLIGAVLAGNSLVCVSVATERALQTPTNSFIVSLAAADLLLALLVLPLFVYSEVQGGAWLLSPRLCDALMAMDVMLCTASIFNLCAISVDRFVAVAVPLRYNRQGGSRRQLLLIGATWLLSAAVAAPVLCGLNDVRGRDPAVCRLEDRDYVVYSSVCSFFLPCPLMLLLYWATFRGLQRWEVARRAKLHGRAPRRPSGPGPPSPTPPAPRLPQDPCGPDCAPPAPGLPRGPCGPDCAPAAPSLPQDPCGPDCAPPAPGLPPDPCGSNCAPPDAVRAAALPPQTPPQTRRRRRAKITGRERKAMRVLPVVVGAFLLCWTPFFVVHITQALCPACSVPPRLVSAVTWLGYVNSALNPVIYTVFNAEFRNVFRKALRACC

[2] = biological target: T3, 5-hydroxytryptamine receptor 1A (Homo sapiens, UniProt P08908)
T3 sequence (P08908 whole entry): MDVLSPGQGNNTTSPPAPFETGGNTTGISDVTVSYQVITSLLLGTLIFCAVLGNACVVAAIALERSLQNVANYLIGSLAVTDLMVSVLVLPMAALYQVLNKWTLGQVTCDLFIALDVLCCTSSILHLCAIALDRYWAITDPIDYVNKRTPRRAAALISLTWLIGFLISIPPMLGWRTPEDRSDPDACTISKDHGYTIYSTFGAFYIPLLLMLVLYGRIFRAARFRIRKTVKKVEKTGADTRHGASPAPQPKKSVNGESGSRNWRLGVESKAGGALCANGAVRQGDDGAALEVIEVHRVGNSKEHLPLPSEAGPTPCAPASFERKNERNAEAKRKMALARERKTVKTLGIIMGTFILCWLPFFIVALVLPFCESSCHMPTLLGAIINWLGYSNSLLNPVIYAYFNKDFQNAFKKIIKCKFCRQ

[3] = biological target: Voltage-gated L-type calcium channel (Homo sapiens, UniProt Q13936+Q13698+Q01668+O60840); assay type: protein assay
D(3) dopamine receptor = D(3) dopamine receptor (Homo sapiens, UniProt P35462)
D(1B) dopamine receptor = D(1B) dopamine receptor (Homo sapiens, UniProt P21918)
[4] = biological target: 5-hydroxytryptamine receptor 6 (Homo sapiens, UniProt P50406)
[5] = biological target: 5-hydroxytryptamine receptor 2A (Homo sapiens, UniProt P28223)
[6] = biological target: T4, Sodium-dependent dopamine transporter (Homo sapiens, UniProt Q01959)
[7] = biological target: 5-hydroxytryptamine receptor 7 (Homo sapiens, UniProt P34969)
Histamine H2 receptor = Histamine H2 receptor (Homo sapiens, UniProt P25021)
Histamine H1 receptor = Histamine H1 receptor (Homo sapiens, UniProt P35367)
Adenosine receptor A3 = biological target: T5, Adenosine receptor A3 (Homo sapiens, UniProt P0DMS8)
T5 sequence (P0DMS8 whole entry): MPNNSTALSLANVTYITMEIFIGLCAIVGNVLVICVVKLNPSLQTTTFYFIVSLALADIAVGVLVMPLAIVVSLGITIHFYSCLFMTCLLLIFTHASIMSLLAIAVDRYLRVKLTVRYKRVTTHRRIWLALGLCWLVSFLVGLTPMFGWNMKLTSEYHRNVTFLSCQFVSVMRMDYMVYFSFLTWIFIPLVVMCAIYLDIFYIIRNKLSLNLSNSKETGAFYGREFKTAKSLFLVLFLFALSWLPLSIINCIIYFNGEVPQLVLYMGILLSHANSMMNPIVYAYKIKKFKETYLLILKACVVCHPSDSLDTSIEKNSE

[8] = biological target: T6, 5-hydroxytryptamine receptor 2C (Homo sapiens, UniProt P28335)
T6 sequence (P28335 whole entry): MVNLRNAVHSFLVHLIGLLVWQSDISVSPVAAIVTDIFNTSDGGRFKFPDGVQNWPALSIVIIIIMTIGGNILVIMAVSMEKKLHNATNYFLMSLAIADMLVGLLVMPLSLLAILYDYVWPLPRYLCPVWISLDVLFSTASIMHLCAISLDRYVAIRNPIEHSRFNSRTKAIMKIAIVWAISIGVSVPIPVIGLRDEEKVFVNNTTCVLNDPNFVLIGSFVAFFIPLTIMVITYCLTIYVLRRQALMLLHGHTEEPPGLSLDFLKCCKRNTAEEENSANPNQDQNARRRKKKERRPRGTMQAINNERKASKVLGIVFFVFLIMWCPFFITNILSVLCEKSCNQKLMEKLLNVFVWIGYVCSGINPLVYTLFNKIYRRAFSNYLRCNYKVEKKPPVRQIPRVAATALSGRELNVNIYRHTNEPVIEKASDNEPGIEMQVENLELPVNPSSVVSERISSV

Substance-K receptor = Substance-K receptor (Homo sapiens, UniProt P21452)
D(2) dopamine receptor = D(2) dopamine receptor (Homo sapiens, UniProt P14416)
Substance-P receptor = Substance-P receptor (Homo sapiens, UniProt P25103)
D(1A) dopamine receptor = D(1A) dopamine receptor (Homo sapiens, UniProt P21728)
[9] = biological target: 5-hydroxytryptamine receptor 5A (Homo sapiens, UniProt P47898)
Vasopressin V1a receptor = Vasopressin V1a receptor (Homo sapiens, UniProt P37288)
Adenosine receptor A1 = Adenosine receptor A1 (Homo sapiens, UniProt P30542)
[10] = biological target: T4, Sodium-dependent dopamine transporter; remark: listed apart in the source

Chain of D(1A) dopamine receptor (P21728 whole entry): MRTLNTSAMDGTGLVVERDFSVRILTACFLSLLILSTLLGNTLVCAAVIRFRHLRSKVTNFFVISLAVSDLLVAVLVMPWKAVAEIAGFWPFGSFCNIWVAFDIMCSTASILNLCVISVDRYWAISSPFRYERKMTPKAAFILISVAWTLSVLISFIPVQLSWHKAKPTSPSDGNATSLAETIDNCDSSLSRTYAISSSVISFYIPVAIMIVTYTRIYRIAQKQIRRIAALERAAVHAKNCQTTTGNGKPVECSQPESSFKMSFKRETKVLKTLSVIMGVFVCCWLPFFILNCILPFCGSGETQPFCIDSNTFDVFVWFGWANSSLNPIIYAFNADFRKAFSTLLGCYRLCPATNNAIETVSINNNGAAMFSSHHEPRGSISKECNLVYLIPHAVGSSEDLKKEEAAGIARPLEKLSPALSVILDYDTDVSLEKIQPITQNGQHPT
Chain of D(2) dopamine receptor (P14416 whole entry): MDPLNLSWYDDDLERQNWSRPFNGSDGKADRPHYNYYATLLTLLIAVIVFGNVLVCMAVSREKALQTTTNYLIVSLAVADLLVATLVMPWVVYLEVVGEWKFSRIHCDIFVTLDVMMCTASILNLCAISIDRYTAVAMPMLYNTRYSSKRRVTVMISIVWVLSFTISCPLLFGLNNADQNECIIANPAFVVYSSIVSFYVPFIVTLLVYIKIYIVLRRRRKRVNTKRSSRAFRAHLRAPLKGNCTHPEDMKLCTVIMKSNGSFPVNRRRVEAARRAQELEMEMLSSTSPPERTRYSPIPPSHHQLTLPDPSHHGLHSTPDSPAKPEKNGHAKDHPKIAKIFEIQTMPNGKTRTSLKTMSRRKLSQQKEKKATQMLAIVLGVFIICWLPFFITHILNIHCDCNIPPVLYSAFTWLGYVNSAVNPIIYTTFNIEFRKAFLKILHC
Chain of D(1B) dopamine receptor (P21918 whole entry): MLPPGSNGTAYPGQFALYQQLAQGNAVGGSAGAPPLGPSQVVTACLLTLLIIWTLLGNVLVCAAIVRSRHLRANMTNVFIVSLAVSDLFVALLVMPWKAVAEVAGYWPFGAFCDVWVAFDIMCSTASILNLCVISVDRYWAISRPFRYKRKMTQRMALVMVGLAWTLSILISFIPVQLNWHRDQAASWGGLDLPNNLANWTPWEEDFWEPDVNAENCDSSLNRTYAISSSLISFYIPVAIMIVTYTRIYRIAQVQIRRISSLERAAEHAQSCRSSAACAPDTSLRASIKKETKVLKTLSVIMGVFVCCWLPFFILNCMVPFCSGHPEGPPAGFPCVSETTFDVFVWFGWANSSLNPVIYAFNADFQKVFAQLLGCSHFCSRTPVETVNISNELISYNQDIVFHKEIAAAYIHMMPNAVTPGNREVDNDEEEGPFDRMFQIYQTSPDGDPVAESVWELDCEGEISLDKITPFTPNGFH
Chain of 5-hydroxytryptamine receptor 2A (P28223 whole entry): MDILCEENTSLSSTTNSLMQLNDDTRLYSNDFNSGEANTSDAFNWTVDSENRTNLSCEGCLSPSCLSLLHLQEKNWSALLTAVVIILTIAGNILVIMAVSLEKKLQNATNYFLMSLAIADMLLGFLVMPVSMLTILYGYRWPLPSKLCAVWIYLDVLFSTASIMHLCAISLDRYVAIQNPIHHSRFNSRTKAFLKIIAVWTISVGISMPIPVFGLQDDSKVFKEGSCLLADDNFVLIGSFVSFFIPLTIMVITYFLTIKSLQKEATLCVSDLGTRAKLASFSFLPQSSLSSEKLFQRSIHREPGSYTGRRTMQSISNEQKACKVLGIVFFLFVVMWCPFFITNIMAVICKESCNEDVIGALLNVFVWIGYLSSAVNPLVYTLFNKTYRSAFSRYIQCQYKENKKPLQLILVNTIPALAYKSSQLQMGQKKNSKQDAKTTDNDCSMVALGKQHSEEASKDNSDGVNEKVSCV
Chain of Histamine H2 receptor (P25021 whole entry): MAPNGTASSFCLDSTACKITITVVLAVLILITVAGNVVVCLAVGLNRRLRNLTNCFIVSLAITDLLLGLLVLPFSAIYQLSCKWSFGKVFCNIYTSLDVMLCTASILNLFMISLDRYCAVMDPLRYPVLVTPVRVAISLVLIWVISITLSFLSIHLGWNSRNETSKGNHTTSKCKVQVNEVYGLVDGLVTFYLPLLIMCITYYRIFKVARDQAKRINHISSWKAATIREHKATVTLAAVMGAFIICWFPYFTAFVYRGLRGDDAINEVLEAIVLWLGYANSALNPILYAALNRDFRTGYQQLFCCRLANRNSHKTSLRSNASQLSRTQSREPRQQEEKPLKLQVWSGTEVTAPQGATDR
T4 sequence (Q01959 whole entry): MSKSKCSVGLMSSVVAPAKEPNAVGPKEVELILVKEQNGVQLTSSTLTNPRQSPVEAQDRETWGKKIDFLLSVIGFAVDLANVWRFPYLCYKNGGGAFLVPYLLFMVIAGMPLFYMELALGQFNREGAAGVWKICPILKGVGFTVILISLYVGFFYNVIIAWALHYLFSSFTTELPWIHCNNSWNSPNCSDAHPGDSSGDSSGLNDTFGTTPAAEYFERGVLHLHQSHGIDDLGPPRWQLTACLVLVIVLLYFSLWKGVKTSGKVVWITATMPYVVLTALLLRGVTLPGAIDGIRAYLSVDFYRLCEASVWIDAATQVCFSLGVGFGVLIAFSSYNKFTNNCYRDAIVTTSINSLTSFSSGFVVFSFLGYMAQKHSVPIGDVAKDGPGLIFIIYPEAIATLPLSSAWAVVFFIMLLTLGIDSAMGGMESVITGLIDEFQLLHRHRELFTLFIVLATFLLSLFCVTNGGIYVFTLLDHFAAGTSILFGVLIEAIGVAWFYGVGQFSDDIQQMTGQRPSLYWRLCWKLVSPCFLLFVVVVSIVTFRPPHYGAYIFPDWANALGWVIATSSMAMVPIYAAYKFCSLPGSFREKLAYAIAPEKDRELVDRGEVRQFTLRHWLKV
Chain of Histamine H1 receptor (P35367 whole entry): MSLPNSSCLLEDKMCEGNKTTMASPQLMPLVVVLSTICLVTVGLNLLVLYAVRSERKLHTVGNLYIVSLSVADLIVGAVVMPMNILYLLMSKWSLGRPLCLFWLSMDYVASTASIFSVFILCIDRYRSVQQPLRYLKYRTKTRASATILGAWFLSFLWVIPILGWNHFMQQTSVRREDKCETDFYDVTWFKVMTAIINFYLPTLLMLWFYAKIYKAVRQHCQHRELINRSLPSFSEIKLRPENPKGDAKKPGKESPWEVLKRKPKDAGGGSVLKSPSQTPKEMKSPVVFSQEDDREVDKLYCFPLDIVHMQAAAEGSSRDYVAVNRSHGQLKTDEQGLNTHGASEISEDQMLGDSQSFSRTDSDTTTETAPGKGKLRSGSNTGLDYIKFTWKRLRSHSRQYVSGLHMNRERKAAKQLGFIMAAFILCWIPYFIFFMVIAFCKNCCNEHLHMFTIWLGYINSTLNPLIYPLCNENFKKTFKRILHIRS
Chain of 5-hydroxytryptamine receptor 6 (P50406 whole entry): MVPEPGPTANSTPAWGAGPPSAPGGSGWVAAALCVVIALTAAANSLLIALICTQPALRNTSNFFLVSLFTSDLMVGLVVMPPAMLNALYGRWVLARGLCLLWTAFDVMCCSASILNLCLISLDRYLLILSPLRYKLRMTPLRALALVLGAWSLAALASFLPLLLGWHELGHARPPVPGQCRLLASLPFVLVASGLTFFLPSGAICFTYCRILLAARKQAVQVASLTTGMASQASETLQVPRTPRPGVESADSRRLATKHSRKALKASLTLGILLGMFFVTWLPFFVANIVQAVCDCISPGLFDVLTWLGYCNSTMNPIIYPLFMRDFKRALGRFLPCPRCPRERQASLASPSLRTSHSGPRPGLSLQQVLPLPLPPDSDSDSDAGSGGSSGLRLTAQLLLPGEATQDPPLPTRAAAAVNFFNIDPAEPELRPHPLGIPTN
Chain of 5-hydroxytryptamine receptor 7 (P34969 whole entry): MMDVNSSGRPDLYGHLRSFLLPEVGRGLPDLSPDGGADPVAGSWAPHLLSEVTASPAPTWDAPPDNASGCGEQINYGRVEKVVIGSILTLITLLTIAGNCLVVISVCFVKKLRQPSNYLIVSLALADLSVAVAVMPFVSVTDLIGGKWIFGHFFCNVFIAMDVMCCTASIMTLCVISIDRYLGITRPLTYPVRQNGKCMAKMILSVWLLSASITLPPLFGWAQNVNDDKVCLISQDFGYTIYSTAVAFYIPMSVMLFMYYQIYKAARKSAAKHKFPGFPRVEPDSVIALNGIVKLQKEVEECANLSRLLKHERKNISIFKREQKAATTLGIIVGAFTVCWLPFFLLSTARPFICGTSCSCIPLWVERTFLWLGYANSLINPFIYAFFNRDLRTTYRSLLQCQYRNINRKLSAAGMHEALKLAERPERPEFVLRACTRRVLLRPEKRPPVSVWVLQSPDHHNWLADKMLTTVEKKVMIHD
Chain of D(3) dopamine receptor (P35462 whole entry): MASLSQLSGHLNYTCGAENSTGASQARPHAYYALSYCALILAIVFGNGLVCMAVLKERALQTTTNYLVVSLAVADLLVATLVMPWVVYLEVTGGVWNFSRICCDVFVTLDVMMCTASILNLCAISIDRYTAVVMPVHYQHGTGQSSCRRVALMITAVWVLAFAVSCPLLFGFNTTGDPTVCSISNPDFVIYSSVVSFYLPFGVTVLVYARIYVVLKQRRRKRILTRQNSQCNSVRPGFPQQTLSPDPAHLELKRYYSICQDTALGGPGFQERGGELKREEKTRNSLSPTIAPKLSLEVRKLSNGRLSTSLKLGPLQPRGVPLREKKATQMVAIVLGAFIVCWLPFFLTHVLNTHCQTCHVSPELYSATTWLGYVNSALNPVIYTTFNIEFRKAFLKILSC
Chain of Adenosine receptor A1 (P30542 whole entry): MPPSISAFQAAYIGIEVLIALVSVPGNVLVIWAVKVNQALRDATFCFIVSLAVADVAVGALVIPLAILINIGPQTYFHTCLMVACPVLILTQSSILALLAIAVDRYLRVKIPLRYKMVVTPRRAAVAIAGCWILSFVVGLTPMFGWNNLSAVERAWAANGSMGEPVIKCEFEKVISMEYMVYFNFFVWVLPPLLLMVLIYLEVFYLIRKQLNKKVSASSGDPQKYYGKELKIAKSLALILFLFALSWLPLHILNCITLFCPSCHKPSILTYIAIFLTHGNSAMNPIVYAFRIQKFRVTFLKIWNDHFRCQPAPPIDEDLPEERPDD

Structure (SMILES): O=C(CCc1ccc(F)cc1)N1CCN(CCCC(c2ccc(F)cc2)c2ccc(F)cc2)CC1
- IC50 [1]: 1170 nM
- IC50 (D(4) dopamine receptor): 716 nM
- IC50 [2]: 1110 nM
- IC50 [3]: 4300 nM
- IC50 (D(3) dopamine receptor): 977 nM
- IC50 (D(1B) dopamine receptor): 3020 nM
- IC50 [4]: 1350 nM
- IC50 [5]: 1030 nM
- IC50 [6]: 1280 nM
- IC50 [7]: 1170 nM
- IC50 (Histamine H2 receptor): 1340 nM
- IC50 (Histamine H1 receptor): 1660 nM
- IC50 (Adenosine receptor A3): 5080 nM

Structure (SMILES): CCOc1ccc(CCOC(=O)N2CCN(CCCc3ccccc3)CC2)cc1
- IC50 [5]: 980 nM
- IC50 [7]: 1430 nM
- IC50 (Adenosine receptor A3): 4180 nM

Structure (SMILES): CCOc1ccc(CCNC(=O)N2CCN(CCCC(c3ccc(F)cc3)c3ccc(F)cc3)CC2)cc1
- IC50 [1]: 993 nM
- IC50 [8]: 1420 nM
- IC50 (Substance-K receptor): 5180 nM
- IC50 (D(2) dopamine receptor): 2890 nM
- IC50 [3]: 860 nM
- IC50 (Substance-P receptor): 839 nM
- IC50 (D(3) dopamine receptor): 341 nM
- IC50 (D(1B) dopamine receptor): 1450 nM
- IC50 [4]: 800 nM
- IC50 [5]: 231 nM
- IC50 [6]: 994 nM
- IC50 (D(1A) dopamine receptor): 967 nM
- IC50 [7]: 2040 nM
- IC50 (Histamine H2 receptor): 757 nM
- IC50 (Histamine H1 receptor): 1820 nM
- IC50 (Adenosine receptor A3): 2460 nM

Structure (SMILES): N#Cc1ccc(CCOC(=O)N2CCN(CCCC(c3ccc(F)cc3)c3ccc(F)cc3)CC2)cc1
- IC50 [1]: 1100 nM
- IC50 (D(4) dopamine receptor): 776 nM
- IC50 (D(2) dopamine receptor): 2240 nM
- IC50 [2]: 1020 nM
- IC50 [3]: 1720 nM
- IC50 [9]: 3380 nM
- IC50 (D(3) dopamine receptor): 195 nM
- IC50 (D(1B) dopamine receptor): 988 nM
- IC50 [4]: 2280 nM
- IC50 [5]: 715 nM
- IC50 [6]: 996 nM
- IC50 (D(1A) dopamine receptor): 1120 nM
- IC50 [7]: 1440 nM
- IC50 (Histamine H2 receptor): 1030 nM
- IC50 (Histamine H1 receptor): 795 nM
- IC50 (Adenosine receptor A3): 3480 nM

Structure (SMILES): O=C(OC1CCc2ccccc21)N1CCC2(CC1)C(=O)NCN2c1ccccc1 (stereo not given)
- IC50 [8]: 345 nM
- IC50 (Vasopressin V1a receptor): 5160 nM
- IC50 (D(3) dopamine receptor): 3180 nM

Structure (SMILES): O=C(NCCCn1c(=O)[nH]c2ccccc21)OCc1cc2c(cc1Cl)OCO2
- IC50 (Adenosine receptor A1): 344 nM
- IC50 (Adenosine receptor A3): 3330 nM

Structure (SMILES): COc1ccc(SCCC(=O)N2CCN(Cc3cccc(Oc4ccc(Cl)cc4)c3)CC2)cc1
- IC50 (Adenosine receptor A3): 3750 nM

Structure (SMILES): O=c1[nH]c2ccccc2n(C2CCN(Cc3cc4c(cc3Cl)OCO4)CC2)c1=O
- IC50 (D(4) dopamine receptor): 6550 nM
- IC50 [6]: 1520 nM

Structure (SMILES): N#Cc1ccc(CCOC(=O)N2CCN(CCCc3ccccc3)CC2)cc1
- IC50 (D(4) dopamine receptor): 1410 nM
- IC50 [2]: 1570 nM
- IC50 [5]: 854 nM
- IC50 (Histamine H1 receptor): 280 nM

Structure (SMILES): COc1ccc(CN2CCN(C(=O)CCn3cc(C)c4ccccc43)CC2)cc1OCc1ccccc1
- IC50 [3]: 4840 nM
- IC50 (Adenosine receptor A3): 3730 nM

Structure (SMILES): O=C(OCCc1ccc(F)cc1)N1CCN(CCCC(c2ccc(F)cc2)c2ccc(F)cc2)CC1
- IC50 [1]: 1640 nM
- IC50 [8]: 3450 nM
- IC50 (D(4) dopamine receptor): 338 nM
- IC50 (D(2) dopamine receptor): 2620 nM
- IC50 [2]: 1140 nM
- IC50 [3]: 2730 nM
- IC50 (D(3) dopamine receptor): 456 nM
- IC50 (D(1B) dopamine receptor): 1550 nM
- IC50 [4]: 1530 nM
- IC50 [5]: 1060 nM
- IC50 [6]: 1650 nM
- IC50 [7]: 726 nM
- IC50 (Histamine H2 receptor): 1250 nM
- IC50 (Histamine H1 receptor): 1280 nM
- IC50 (Adenosine receptor A3): 4210 nM

Structure (SMILES): O=C(OCc1cccc(Oc2ccccc2)c1)N1CCC2(CC1)C(=O)NCN2c1ccccc1
- IC50 [8]: 652 nM
- IC50 [2]: 2080 nM
- IC50 (Adenosine receptor A3): 1510 nM
- IC50 [10]: 2940 nM

Structure (SMILES): O=C(CCCc1ccccc1)N1CCN(CCCC(c2ccc(F)cc2)c2ccc(F)cc2)CC1
- IC50 [1]: 2190 nM
- IC50 [8]: 4070 nM
- IC50 (D(4) dopamine receptor): 280 nM
- IC50 [3]: 2350 nM
- IC50 [9]: 5520 nM
- IC50 (D(3) dopamine receptor): 758 nM
- IC50 (D(1B) dopamine receptor): 1860 nM
- IC50 [4]: 7780 nM
- IC50 [5]: 950 nM
- IC50 [6]: 954 nM
- IC50 (D(1A) dopamine receptor): 2750 nM
- IC50 [7]: 2130 nM
- IC50 (Histamine H2 receptor): 1980 nM
- IC50 (Histamine H1 receptor): 1930 nM
